The source of these data is patent publication US20260085034A1, “N-(BENZHYDRYL)CYCLOALKYLCARBOXAMIDE DERIVATIVES AS INHIBITORS OF GLYCOGEN SYNTHASE 1 (GYS1) AND METHODS OF USE THEREOF” (Maze Therapeutics, Inc., priority 2022, published 2026).

This experiment concerns the target T1, recombinant hGYS1/GN1 protein (Homo sapiens, UniProt P13807).
T1 sequence (P13807 1-737): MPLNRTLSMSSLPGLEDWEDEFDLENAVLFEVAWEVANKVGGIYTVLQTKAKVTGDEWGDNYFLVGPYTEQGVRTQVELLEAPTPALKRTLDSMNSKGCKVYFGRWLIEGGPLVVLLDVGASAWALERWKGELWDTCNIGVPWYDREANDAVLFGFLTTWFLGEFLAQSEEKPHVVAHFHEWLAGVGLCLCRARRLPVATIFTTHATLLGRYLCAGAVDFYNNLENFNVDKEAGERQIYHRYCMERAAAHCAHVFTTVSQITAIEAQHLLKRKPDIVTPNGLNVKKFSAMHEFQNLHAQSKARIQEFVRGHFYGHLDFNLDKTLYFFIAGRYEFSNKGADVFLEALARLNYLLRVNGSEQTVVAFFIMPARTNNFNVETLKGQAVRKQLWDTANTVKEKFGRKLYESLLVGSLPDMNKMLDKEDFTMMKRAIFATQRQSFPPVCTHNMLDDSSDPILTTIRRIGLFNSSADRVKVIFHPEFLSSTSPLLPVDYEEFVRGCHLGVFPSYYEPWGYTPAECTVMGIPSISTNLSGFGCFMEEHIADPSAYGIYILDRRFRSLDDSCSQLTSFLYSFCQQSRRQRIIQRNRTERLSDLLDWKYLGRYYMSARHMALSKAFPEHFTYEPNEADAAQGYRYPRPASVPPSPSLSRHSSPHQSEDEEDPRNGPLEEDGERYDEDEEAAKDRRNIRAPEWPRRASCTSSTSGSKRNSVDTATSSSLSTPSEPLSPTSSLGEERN
T1 sequence (P46976 1-350 partner): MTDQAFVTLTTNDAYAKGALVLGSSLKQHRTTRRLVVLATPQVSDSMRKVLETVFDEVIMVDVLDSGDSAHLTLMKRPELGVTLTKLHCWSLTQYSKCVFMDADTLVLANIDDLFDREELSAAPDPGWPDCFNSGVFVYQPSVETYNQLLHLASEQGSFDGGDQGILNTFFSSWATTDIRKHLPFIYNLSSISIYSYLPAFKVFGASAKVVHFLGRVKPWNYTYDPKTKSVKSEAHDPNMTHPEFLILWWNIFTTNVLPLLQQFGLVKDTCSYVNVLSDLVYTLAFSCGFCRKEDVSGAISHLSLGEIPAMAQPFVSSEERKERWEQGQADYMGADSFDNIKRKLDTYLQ
The experiment is described as follows: GYS1 coupled enzyme assay (PK/LDH). The settings on record: geometric mean of at least 2 assay runs; NADH absorbance at 340 nm. The class given is biochemical. The essentials:
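Recombinant hGYS1/GN1 (50 nM) with 0.8 mM UDP-glucose, 0.2% glycogen and 1 mM glucose-6-phosphate in Tris pH 7.5, 2.5% DMSO. UDP formation coupled via PK/LDH to NADH oxidation, read at 340 nm over 10 min. Control-normalized slopes fit to Hill equation; IC50 as geometric mean of ≥2 runs.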

As usually defined, the IC50 is the midpoint of a concentration-inhibition curve. With `CC(C)c1ccc([C@@H](NC(=O)[C@H]2C[C@@H]2F)c2ccn[nH]2)cc1F` (single isomer, unassigned) [compound 11], the half-inhibitory concentration (IC50) was 145 nM.
